This assay deals with T1, rhJAK3 (Homo sapiens, UniProt P52333).
T1 construct: recombinant purified GST-tagged catalytic domain for each enzyme; purchased Invitrogen PV3855
In words: JAK Biochemical HTRF Assay (JAK3). The note with it: recombinant purified GST-tagged catalytic domain, HTRF format, [ATP] 1.7 μM; read-out: rhJAK3 IC50. The method, then: JAK Biochemical HTRF Assay Protocol
The ability of compounds to inhibit the activity of JAK1, JAK2, JAK3, and TYK2 was measured using a recombinant purified GST-tagged catalytic domain for each enzyme (Invitrogen JAK1 #PV4774, JAK2 #PV4210, JAK3 #PV3855, TYK2 #PV4790) in an HTRF format biochemical assay. The reactions employed a common peptide substrate, LCB-EQEDEPEGDYFEWLW-NH2. The basic assay protocol is as follows: First, […] of diluted compounds in DMSO were dispensed into the wells of a dry 384-well Black plate (Greiner #781076) using a Labcyte Echo 555 acoustic dispenser. Subsequent reagent additions employed a Thermo Multidrop Combi nL. Next, 10 μL of 2× enzyme and 2× substrate in 1× assay buffer (Invitrogen kinase buffer #PV3189, 2 mM DTT, 0.05% BSA) were added to the wells and preincubated for 30 min at room temperature to allow compound binding to equilibrate. After equilibration, 10 μl, of 2×ATP in 1× assay buffer was added to initiate the kinase reaction and the plates were incubated at room temperature for 120 min. At the end of the incubation, 20 μL of 2× stop buffer containing streptavidin-Dylight (Thermo #21845) and Eu-tagged pY20 antibody (Perkin Elmer #AD0067) was added to quench the reaction. Plates were further incubated 60 min at room temperature with shaking and then read on a Perkin Elmer Envision (λex=337 nm, λem=665 and 615 nm, TRF delay time=20 μs). HTRF signal=10,000*665 nm reading/615 nm reading. After normalization to untreated controls, the percent inhibition of the HTRF signal at each compound concentration was calculated. The plot of percent inhibition vs. the log of compound concentration was fit with a 4-parameter dose response equation to calculate IC50 values.

The results in this text go back to patent publication US20130040933A1, “AZAINDOLES AS JANUS KINASE INHIBITORS” (priority 2010, published 2013).

In general, IC50 refers to the concentration that inhibits the measured activity by half.

Molecules are shown by their SMILES.

T1 sequence (P52333 822-1111 limits assumed): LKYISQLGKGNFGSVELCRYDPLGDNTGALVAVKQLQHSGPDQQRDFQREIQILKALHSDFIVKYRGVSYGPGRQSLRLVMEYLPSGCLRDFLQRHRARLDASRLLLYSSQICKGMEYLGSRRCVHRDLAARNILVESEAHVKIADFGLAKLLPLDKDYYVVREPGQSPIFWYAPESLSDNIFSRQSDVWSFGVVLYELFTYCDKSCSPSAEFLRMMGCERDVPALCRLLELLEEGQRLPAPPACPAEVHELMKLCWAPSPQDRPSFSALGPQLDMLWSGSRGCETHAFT

`CC(C)CNC(=O)[C@H](C)Nc1cncc(-c2c[nH]c3ncc(Cl)cc23)n1` [Example 2-23, N^2-[6-(5-chloro-1H-pyrrolo[2,3-b]-pyridin-3-yl)pyrazin-2-yl]-N-(2-methylpropyl)-L-alaninamide]: the IC50 is 10 to 100 nM.
In the case of `C[C@H](Nc1cncc(-c2c[nH]c3ncc(Cl)cc23)n1)C(=O)NCC(C)(C)C` [Example 2-24, N^2-[6-(5-chloro-1H-pyrrolo[2,3-b]-pyridin-3-yl)pyrazin-2-yl]-N-(2,2-dimethylpropyl)-L-alaninamide], the IC50 lay within 100 to 1000 nM.
Turning to `O=C(NCC(F)(F)F)C1(Nc2cncc(-c3c[nH]c4ncc(Cl)cc34)n2)CCCC1` [Example 2-25, 1-{[6-(5-chloro-1H-pyrrolo[2,3-b]pyridin-3-yl)pyrazin-2-yl]amino}-N-(2,2,2-trifluoroethyl)cyclopentanecarboxamide], the half-inhibitory concentration (IC50) is at most 1 nM.
`O=C(NCCC(F)(F)F)C1(Nc2cncc(-c3c[nH]c4ncc(Cl)cc34)n2)CCCC1` [Example 2-26, 1-{[6-(5-chloro-1H-pyrrolo[2,3-b]pyridin-3-yl)pyrazin-2-yl]amino}-N-(3,3,3-trifluoropropyl)cyclopentanecarboxamide]: the concentration for half-maximal inhibition (IC50) is 100 to 1000 nM.
As to `O=C(NCC(F)(F)F)[C@@H]1[C@@H](O)CN1c1cncc(-c2c[nH]c3ncc(Cl)cc23)n1` [Example 3, (2S,3S)-1-[6-(5-Chloro-1H-pyrrolo[2,3-b]pyridin-3-yl)pyrazin-2-yl]-3-hydroxy-N-(2,2,2-trifluoroethyl)azetidine-2-carboxamide], the IC50 lay within 1 to 10 nM.
With `CS(=O)(=O)N1CCN(c2cncc(-c3c[nH]c4ncc(Cl)cc34)n2)[C@@H](C(=O)NCC(F)(F)F)C1` [Example 4, (2R)-1-[6-(5-Chloro-1H-pyrrolo[2,3-b]pyridin-3-yl)pyrazin-2-yl]-4-methylsulfonyl-N-(2,2,2-trifluoroethyl)piperazine-2-carboxamide], the concentration for half-maximal inhibition (IC50) lay in the range of 1 to 10 nM.
Regarding `CC(=O)N1CCN(c2cncc(-c3c[nH]c4ncc(Cl)cc34)n2)[C@@H](C(=O)NCC(F)(F)F)C1` [Example 4-2, (2R)-4-acetyl-1-[6-(5-chloro-1H-pyrrolo-[2,3-b]pyridin-3-yl)pyrazin-2-yl]-N-(2,2,2-trifluoroethyl)piperazine-2-carboxamide], the IC50 was in the range of 1 to 10 nM.
Turning to `CC(C)(C)C(=O)N1CCN(c2cncc(-c3c[nH]c4ncc(Cl)cc34)n2)[C@@H](C(=O)NCC(F)(F)F)C1` [Example 4-3, (2R)-1-[6-(5-chloro-1H-pyrrolo[2,3-b]-pyridin-3-yl)pyrazin-2-yl]-4-(2,2-dimethylpropanoyl)-N-(2,2,2-trifluoro-ethyl)piperazine-2-carboxamide], the IC50 was in the range of 10 to 100 nM.
For the molecule `O=C(Cn1ccc2ncc(-c3c[nH]c4ncc(Cl)cc34)nc21)NCC(F)(F)F` [Example 5, 2-[3-(5-Chloro-1H-pyrrolo[2,3-b]pyridin-3-yl)-5H-pyrrolo[2,3-b]pyrazin-5-yl]-N-(2,2,2-trifluoroethyl)acetamide], the IC50 is 10 to 100 nM.
On to `O=C(NCC(F)(F)F)C1(Oc2cncc(-c3c[nH]c4ncc(Cl)cc34)n2)CC1` [Example 6, 1-{[6-(5-Chloro-1H-pyrrolo[2,3-b]pyridin-3-yl)pyrazin-2-yl]oxy}-N-(2,2,2-trifluoroethyl)-cyclopropanecarboxamide], for which the concentration for half-maximal inhibition (IC50) lay within 1 to 10 nM.
As to `NC(=O)C1(Oc2cncc(-c3c[nH]c4ncc(Cl)cc34)n2)CC1` [Example 6-1, 1-{[6-(5-chloro-1H-pyrrolo[2,3-b]pyridin-3-yl)pyrazin-2-yl]oxy}cyclopropane-carboxamide], the IC50 was in the range of 1 to 10 nM.
For `CN(C)C(=O)C1(Oc2cncc(-c3c[nH]c4ncc(Cl)cc34)n2)CC1` [Example 6-2, 1-{[6-(5-chloro-1H-pyrrolo[2,3-b]pyridin-3-yl)pyrazin-2-yl]oxy}-N,N-dimethyl-cyclopropanecarboxamide], the IC50 is 1 to 10 nM.
Take `O=C(NCCC(F)(F)F)C1(Oc2cncc(-c3c[nH]c4ncc(Cl)cc34)n2)CC1` [Example 6-3, 1-{[6-(5-chloro-1H-pyrrolo[2,3-b]pyridin-3-yl)pyrazin-2-yl]oxy}-N-(3,3,3-trifluoro-propyl)cyclopropanecarboxamide]: the half-maximal inhibitory concentration (IC50) fell in the range of 100 to 1000 nM.
With `C[C@H](Oc1cncc(-c2c[nH]c3ncc(Cl)cc23)n1)C(=O)NCC(F)(F)F` [Example 6-4, 2(S) 2-{[6-(5-chloro-1H-pyrrolo[2,3-b]pyridin-3-yl)pyrazin-2-yl]oxy}-N-(2,2,2-trifluoroethyl)propanamide] the figure was 1 to 10 nM; with `O=C(NCC(F)(F)F)c1cncc(-c2c[nH]c3ncc(Cl)cc23)n1` [Example 7, 6-(5-chloro-1H-pyrrolo[2,3-b]pyridin-3-yl)-N-(2,2,2-trifluoroethyl)pyrazine-2-carboxamide], 100 to 1000 nM; with `O=C(NCC(F)(F)F)[C@H]1CNCCN1C(=O)c1cncc(-c2c[nH]c3ncc(Cl)cc23)n1` [Example 7-1, (2R)-1-{[6-(5-chloro-1H-pyrrolo[2,3-b]pyridin-3-yl)-pyrazin-2-yl]carbonyl}-N-(2,2,2-trifluoroethyl)piperazine-2-carboxamide], 100 to 1000 nM.
For `O=C(Cc1cncc(-c2c[nH]c3ncc(Cl)cc23)n1)NCC(F)(F)F` [Example 8, 2-[6-(5-chloro-1H-pyrrolo[2,3-b]pyridin-3-yl)pyrazin-2-yl]-N-(2,2,2-trifluoroethyl)acetamide], the concentration for half-maximal inhibition (IC50) lay in the range of 10 to 100 nM.
For `O=C(Cc1cncc(-c2c[nH]c3ncc(Cl)cc23)n1)N1CCOCC1` [Example 8-1, 5-chloro-3-[6-(2-morpholin-4-yl-2-oxoethyl)pyrazin-2-yl]-1H-pyrrolo-[2,3-b]pyridine], the IC50 was 100 to 1000 nM.
For the molecule `N#CCCNC(=O)Cc1cncc(-c2c[nH]c3ncc(Cl)cc23)n1` [Example 8-2, 2-[6-(5-chloro-1H-pyrrolo[2,3-b]-pyridin-3-yl)pyrazin-2-yl]-N-(2-cyanoethyl) acetamide], the IC50 is 100 to 1000 nM.
`O=C(Cc1cncc(-c2c[nH]c3ncc(Cl)cc23)n1)NCCC(F)(F)F` [Example 8-3, 2-[6-(5-chloro-1H-pyrrolo[2,3-b]-pyridin-3-yl)pyrazin-2-yl]-N-(3,3,3-trifluoropropyl) acetamide]: the IC50 lay within 10 to 100 nM.
Consider `N#CCNC(=O)Cc1cncc(-c2c[nH]c3ncc(Cl)cc23)n1` [Example 8-4, 2-[6-(5-chloro-1H-pyrrolo[2,3-b]-pyridin-3-yl)pyrazin-2-yl]-N-(cyanomethyl)acetamide], for which the IC50 lay in the range of 10 to 100 nM.
Take `C/C(=C\c1cncc(-c2c[nH]c3ncc(Cl)cc23)n1)C(=O)NCC(F)(F)F` [Example 9, (2E)-3-[6-(5-chloro-1H-pyrrolo[2,3-b]pyridin-3-yl)pyrazin-2-yl]-2-methyl-N-(2,2,2-trifluoro-ethyl)prop-2-enamide]: the IC50 is 10 to 100 nM.
For `O=C(NCC(F)(F)F)c1ccc(-c2cncc(-c3c[nH]c4ncc(Cl)cc34)n2)cc1` [Example 10, 4-[6-(5-Chloro-1H-pyrrolo[2,3-b]pyridin-3-yl)pyrazin-2-yl]-N-(2,2,2-trifluoroethyl)benzamide], the IC50 lay within 100 to 1000 nM.
With `O=C(NCC(F)(F)F)C1=C(c2cncc(-c3c[nH]c4ncc(Cl)cc34)n2)CCC1` [Example 10-1, 2-[6-(5-chloro-1H-pyrrolo[2,3-b]pyridin-3-yl)pyrazin-2-yl]-N-(2,2,2-trifluoroethyl)cyclopent-1-ene-1-carboxamide] the figure was 1 to 10 nM; with `CC1(C(=O)NCC(F)(F)F)CC1c1cncc(-c2c[nH]c3ncc(Cl)cc23)n1` (centres unmarked) [Example 10-2, 2-[6-(5-chloro-1H-pyrrolo[2,3-b]pyridin-3-yl)pyrazin-2-yl]-1-methyl-N-(2,2,2-trifluoroethyl)cyclopropanecarboxamide], 1 to 10 nM; with `CC(Cc1cncc(-c2c[nH]c3ncc(Cl)cc23)n1)C(=O)NCC(F)(F)F` (centres unmarked) [Example 11, 3-[6-(5-chloro-1H-pyrrolo[2,3-b]pyridin-3-yl)pyrazin-2-yl]-2-methyl-N-(2,2,2-trifluoroethyl)-propanamide], 10 to 100 nM.
For the molecule `O=C(CCc1cncc(-c2c[nH]c3ncc(Cl)cc23)n1)NCC(F)(F)F` [Example 12, 3-[6-(5-chloro-1H-pyrrolo[2,3-b]pyridin-3-yl)pyrazin-2-yl]-N-(2,2,2-trifluoroethyl)propanamide], the IC50 fell in the range of 10 to 100 nM.
Regarding `C[C@@H](Nc1cncc(-c2c[nH]c3ncc(C4CC4)cc23)n1)C(=O)NCC(F)(F)F` [Example 13, N^2-[6-(5-cyclopropyl-1H-pyrrolo[2,3-b]pyridin-3-yl)pyrazin-2-yl]-N-(2,2,2-trifluoroethyl)-D-alaninamide], the half-inhibitory concentration (IC50) was at most 1 nM.
For `C[C@@H](Nc1cncc(-c2c[nH]c3ncc(-c4cnn(C)c4)cc23)n1)C(=O)NCC(F)(F)F` [Example 14, N^2-{6-[5-(1-methyl-1H-pyrazol-4-yl)-1H-pyrrolo[2,3-b]pyridin-3-yl]pyrazin-2-yl}-N-(2,2,2-trifluoroethyl)-D-alaninamide], the IC50 is at most 1 nM.
